{
  "source": "patent US10933032B2",
  "about": "“Methods for the treatment of cancer using coenzyme Q10 combination therapies” (Berg LLC, priority 2013, dated 2021)",
  "experiment_in_all_cases": "Induction of early apoptosis (Bcl-2, annexin V, or caspase activation)",
  "format_in_all_cases": "cell-based",
  "key": {"MCF-7": {"test_system": "MCF-7", "settings": "BREAST: MCF-7", "method": "(§1) The effects of Coenzyme Q10 treatment on a variety of oncogenic and normal cell lines were examined and compared. The sensitivity of cells to Coenzyme Q10 was assessed by monitoring induction of apoptosis. CoQ10 treatment of cells was carried out as described in detail below in the Materials and Methods. Induction of apoptosis was assessed in the treated cells by monitoring indicators of early apoptosis (e.g., Bcl-2 expression, caspase activation and by using annexin V assays) as described below. From these studies, the minimal CoQ10 dosage, e.g., concentration of CoQ10 and time of treatment, required to induce apoptosis in the panel of cell lines was determined.\n(§2) Cells were cultured in T-75 flasks with relevant medium supplemented with 10% Fetal Bovine Serum (FBS), 1% PSA (penicillin, streptomycin, amphotericin B) (Invitrogen and Cellgro) in a 37° C. incubator with 5% CO2 levels until 70-80% confluence was reached. To harvest cells for treatment, flasks were primed with 1 mL Trypsin, aspirated, trypsinized with an additional 3 mL, and incubated at 37° C. for 3-5 minutes. Cells were then neutralized with an equal volume of media and the subsequent solution was centrifuged at […] for 8 minutes. The supernatant was aspirated and the cells were resuspended with 8.5 ml of media. A mixture of 500 ul of the resuspension and 9.5 ml of […] was read twice by a coulter counter and the appropriate number of cells to be seeded into each dish was determined. Control and concentration ranging from 0-200 μM groups were examined in triplicate. From a 500 μM CoQ-10 stock solution, serial dilutions were performed to achieve desired experimental concentration in appropriate dishes. Dishes were incubated in a 37° C. incubator with 5% CO2 levels for 0-72 hours depending on cell type and experimental protocol.\n(§3) Following cell treatment incubation period was complete, protein isolation was performed. Dishes of all treatment groups were washed twice with 2 ml, and once with 1 ml of ice cold 1× Phosphate Buffered Saline (PBS). The PBS was aspirated from the dishes after the initial 2 washes only. Cells were gently scraped and collected into microcentrifuge tubes using the final volume from the third wash and centrifuged at 10,000 rpm for 10 minutes. After centrifugation, the supernatant was aspirated and the pellet was lysed with 50 uL of lysis buffer (1 uL of protease and phosphotase inhibitor for every 100 uL of lysis buffer). Samples were then frozen overnight at −20° C.\n(§4) After the cell treatment incubation period was complete, protein isolation was performed. Flasks of all treatment groups were washed twice with 5 mL, and once with 3 mL of ice cold 1×PBS. The PBS was aspirated from the flasks after the first 2 washes only. Cells were gently scraped and collected into 15 mL centrifuge tubes using the final volume from the third wash and centrifuged for at 10,000 rpm for 10 minutes. After centrifugation, the supernatant was aspirated and the pellet was lysed with an appropriate amount of lysis buffer (1 uL of protease and phosphotase inhibitor for every 100 uL of lysis buffer). Lysis buffer volume was dependent on pellet size. Samples were transferred in microcentrifuge tubes and frozen overnight at −20° C.\n(§5) Samples were thawed at […] and sonicated to ensure homogenization the day following protein isolation. Protein quantification was performed using the micro BCA protein assay kit (Pierce). To prepare samples for Immuno-blotting, a 1:19 solution of betamercaptoethanol (Sigma) to sample buffer (Bio-Rad) was prepared. Samples were diluted 1:1 with the betamercaptoethanol-sample buffer solution, boiled at 95° C. for 5 minutes, and frozen overnight at −20° C.\n(§6) The volume of sample to load per well was determined using the raw mean concentration of protein obtained from the BCA protein assay. Approximately 30-60 μg of protein were loaded for each treatment time point. […]"}, "BT-20": {"test_system": "BT-20", "settings": "BREAST: BT-20", "method": "as §1, §2, §3, §4, §5, §6"}, "[1]": {"test_system": "Keratinocytes (Heka, Hekn)", "settings": "SKIN: Keratinocytes (Heka, Hekn)", "method": "as §1, §2, §3, §4, §5, §6"}, "PC3": {"test_system": "PC3", "settings": "PROSTATE: PC3", "method": "as §1, §2, §3, §4, §5, §6"}, "Osteosarcoma (143b)": {"test_system": "Osteosarcoma (143b)", "settings": "BONE: Osteosarcoma (143b)", "method": "as §1, §2, §3, §4, §5, §6"}, "Ewing's sarcoma (NCI)": {"test_system": "Ewing's sarcoma (NCI)", "settings": "BONE: Ewing's sarcoma (NCI)", "method": "as §1, §2, §3, §4, §5, §6"}, "Melanoma (Skmel 2)": {"test_system": "Melanoma (Skmel 2)", "settings": "SKIN: Melanoma (Skmel 2)", "method": "as §1, §2, §3, §4, §5, §6"}, "[2]": {"test_system": "SCC, Squamous cell carcinoma", "settings": "SKIN: SCC", "method": "as §1, §2, §3, §4, §5, §6"}, "[3]": {"test_system": "Mammary fiboblasts: 184A1 and 184B5) (Lawrence Berkeley)", "settings": "BREAST: Mammary fiboblasts: 184A1 and 184B5", "method": "as §1, §2, §3, §4, §5, §6"}, "MDA MB 468": {"test_system": "MDA MB 468", "settings": "BREAST: MDA MB 468", "method": "as §1, §2, §3, §4, §5, §6"}, "Hep3B": {"test_system": "Hep3B", "settings": "LIVER: Hep3B", "method": "as §1, §2, §3, §4, §5, §6"}, "ZR-75": {"test_system": "ZR-75", "settings": "BREAST: ZR-75", "method": "as §1, §2, §3, §4, §5, §6"}, "[4]": {"test_system": "Aortic smooth muscle (HASMC)", "settings": "Heart: Aortic smooth muscle (HASMC)", "method": "as §1, §2, §3, §4, §5, §6"}, "Fibroblasts (nFib)": {"test_system": "Fibroblasts (nFib)", "settings": "SKIN: Fibroblasts (nFib)", "method": "as §1, §2, §3, §4, §5, §6"}, "SkBr-3": {"test_system": "SkBr-3", "settings": "BREAST: SkBr-3", "method": "as §1, §2, §3, §4, §5, §6"}, "HepG2": {"test_system": "HepG2", "settings": "LIVER: HepG2", "method": "as §1, §2, §3, §4, §5, §6"}, "PaCa2": {"test_system": "PaCa2", "settings": "PANCREAS: PaCa2", "method": "as §1, §2, §3, §4, §5, §6"}},
  "data": [
    {"smiles": "COC1=C(OC)C(=O)C(C/C=C(\\C)CC/C=C(\\C)CC/C=C(\\C)CC/C=C(\\C)CC/C=C(\\C)CC/C=C(\\C)CC/C=C(\\C)CC/C=C(\\C)CC/C=C(\\C)CCC=C(C)C)=C(C)C1=O", "note": "[CoQ10, Coenzyme Q10]", "values": [
      {"measurement": "Indication of Early apoptosis (Bcl-2, annexin V, or caspase activation)", "setting": "MCF-7", "value": "Strong"},
      {"measurement": "Minimal CoQ10 concentration required for induction of early apoptosis, Concentration", "setting": "MCF-7", "value": 50, "unit": "µM"},
      {"measurement": "Minimal treatment time required for induction of early apoptosis, Time", "setting": "MCF-7", "value": 48, "unit": "h"},
      {"measurement": "Indication of Early apoptosis (Bcl-2, annexin V, or caspase activation)", "setting": "BT-20", "value": "Strong"},
      {"measurement": "Minimal CoQ10 concentration required for induction of early apoptosis, Concentration", "setting": "BT-20", "value": 100, "unit": "µM"},
      {"measurement": "Minimal treatment time required for induction of early apoptosis, Time", "setting": "BT-20", "value": 48, "unit": "h"},
      {"measurement": "Indication of Early apoptosis (Bcl-2, annexin V, or caspase activation)", "setting": "[1]", "value": "None"},
      {"measurement": "Indication of Early apoptosis (Bcl-2, annexin V, or caspase activation)", "setting": "PC3", "value": "Very Strong"},
      {"measurement": "Minimal CoQ10 concentration required for induction of early apoptosis, Concentration", "setting": "PC3", "value": 25, "unit": "µM"},
      {"measurement": "Minimal treatment time required for induction of early apoptosis, Time", "setting": "PC3", "value": 24, "unit": "h"},
      {"measurement": "Indication of Early apoptosis (Bcl-2, annexin V, or caspase activation)", "setting": "Osteosarcoma (143b)", "value": "Very Strong"},
      {"measurement": "Minimal CoQ10 concentration required for induction of early apoptosis, Concentration", "setting": "Osteosarcoma (143b)", "value": 50, "unit": "µM"},
      {"measurement": "Minimal treatment time required for induction of early apoptosis, Time", "setting": "Osteosarcoma (143b)", "value": 48, "unit": "h"},
      {"measurement": "Minimal CoQ10 concentration required for induction of early apoptosis, Concentration", "setting": "Ewing's sarcoma (NCI)", "value": 5, "unit": "µM"},
      {"measurement": "Minimal treatment time required for induction of early apoptosis, Time", "setting": "Ewing's sarcoma (NCI)", "value": 1, "unit": "h"},
      {"measurement": "Indication of Early apoptosis (Bcl-2, annexin V, or caspase activation)", "setting": "Ewing's sarcoma (NCI); cell wraps: Extremely / strong", "value": "Extremely"},
      {"measurement": "Indication of Early apoptosis (Bcl-2, annexin V, or caspase activation)", "setting": "Melanoma (Skmel 2)", "value": "Very Strong"},
      {"measurement": "Minimal CoQ10 concentration required for induction of early apoptosis, Concentration", "setting": "Melanoma (Skmel 2)", "value": 25, "unit": "µM"},
      {"measurement": "Minimal treatment time required for induction of early apoptosis, Time", "setting": "Melanoma (Skmel 2)", "value": 24, "unit": "h"},
      {"measurement": "Indication of Early apoptosis (Bcl-2, annexin V, or caspase activation)", "setting": "[2]", "value": "Very Strong"},
      {"measurement": "Minimal CoQ10 concentration required for induction of early apoptosis, Concentration", "setting": "[2]", "value": 25, "unit": "µM"},
      {"measurement": "Minimal treatment time required for induction of early apoptosis, Time", "setting": "[2]", "value": 24, "unit": "h"},
      {"measurement": "Indication of Early apoptosis (Bcl-2, annexin V, or caspase activation)", "setting": "[3]", "value": "None"},
      {"measurement": "Indication of Early apoptosis (Bcl-2, annexin V, or caspase activation)", "setting": "MDA MB 468", "value": "Strong"},
      {"measurement": "Minimal CoQ10 concentration required for induction of early apoptosis, Concentration", "setting": "MDA MB 468", "value": 100, "unit": "µM"},
      {"measurement": "Minimal treatment time required for induction of early apoptosis, Time", "setting": "MDA MB 468", "value": 48, "unit": "h"},
      {"measurement": "Indication of Early apoptosis (Bcl-2, annexin V, or caspase activation)", "setting": "Hep3B", "value": "Very Strong"},
      {"measurement": "Minimal CoQ10 concentration required for induction of early apoptosis, Concentration", "setting": "Hep3B", "value": 50, "unit": "µM"},
      {"measurement": "Minimal treatment time required for induction of early apoptosis, Time", "setting": "Hep3B", "value": 24, "unit": "h"},
      {"measurement": "Indication of Early apoptosis (Bcl-2, annexin V, or caspase activation)", "setting": "ZR-75", "value": "Slight"},
      {"measurement": "Minimal CoQ10 concentration required for induction of early apoptosis, Concentration", "setting": "ZR-75", "value": 200, "unit": "µM"},
      {"measurement": "Minimal treatment time required for induction of early apoptosis, Time", "setting": "ZR-75", "value": 72, "unit": "h"},
      {"measurement": "Indication of Early apoptosis (Bcl-2, annexin V, or caspase activation)", "setting": "[4]", "value": "None"},
      {"measurement": "Indication of Early apoptosis (Bcl-2, annexin V, or caspase activation)", "setting": "Fibroblasts (nFib)", "value": "None"},
      {"measurement": "Indication of Early apoptosis (Bcl-2, annexin V, or caspase activation)", "setting": "SkBr-3", "value": "Very Strong"},
      {"measurement": "Minimal CoQ10 concentration required for induction of early apoptosis, Concentration", "setting": "SkBr-3", "value": 50, "unit": "µM"},
      {"measurement": "Minimal treatment time required for induction of early apoptosis, Time", "setting": "SkBr-3", "value": 24, "unit": "h"},
      {"measurement": "Indication of Early apoptosis (Bcl-2, annexin V, or caspase activation)", "setting": "HepG2", "value": "Very Strong"},
      {"measurement": "Minimal CoQ10 concentration required for induction of early apoptosis, Concentration", "setting": "HepG2", "value": 50, "unit": "µM"},
      {"measurement": "Minimal treatment time required for induction of early apoptosis, Time", "setting": "HepG2", "value": 24, "unit": "h"},
      {"measurement": "Indication of Early apoptosis (Bcl-2, annexin V, or caspase activation)", "setting": "PaCa2", "value": "Very Strong"},
      {"measurement": "Minimal CoQ10 concentration required for induction of early apoptosis, Concentration", "setting": "PaCa2", "value": 25, "unit": "µM"},
      {"measurement": "Minimal treatment time required for induction of early apoptosis, Time", "setting": "PaCa2", "value": 24, "unit": "h"}
    ]}
  ]
}
